Assay results published in US20240025903A1, “Bicyclic Compounds and Uses Thereof for the Treatment of Diseases” (Athira Pharma, Inc., priority 2020, published 2024).

Legend:
[1] = target: T1, HGF/MET system (Homo sapiens, UniProt P08581+P14210); experiment: Phospho-MET ELISA; format: cell-based; settings: HEK293 cells, 1 ng/mL recombinant HGF, 15 minutes, pMET ELISA
T1 construct: HEK293 cells were prepared by passage into 6-well multi-plates; endogenous in cells; host or cells: HEK293
Procedure: Compounds were screened for potency towards the HGF/MET system using phospho-MET (pMET) ELISA kits (Cell Signaling). pMET levels were detected in samples having low (1 ng/mL) and high (10 ng/mL) concentrations of HGF.
HEK293 cells were prepared by passage into 6-well multi-plates and grown at 37° C. at 5% CO2 in DMEM+10% FBS until approximately 90% confluent. Cells were then starved for at least 8 hours in serum-free growth media.
Exemplary compounds were prepared in DMEM+0.1% FBS, diluted and added to treatment media with 1 ng/mL recombinant HGF protein (R&D Systems). Cells were incubated in triplicate at 37° C. and 5% CO2 for 15 minutes. Samples were then treated with 180 μL ice-cold RIPA (radioimmunoprecipitation assay) buffer and cells were lysed on ice for 15 minutes. Lysates were cleared by centrifugation at 16,000-g for 15 minutes and the supernatant was retained. Samples were normalized using a BCA assay of lysates to determine protein concentrations across the samples.
Between 50 and 100 μg total protein lysate was loaded into ELISA wells in pMET Sandwich ELISA kit (Cell Signaling Catalog #7227C), ensuring equal protein load in each well. The ELISA was processed according to manufacturer's instructions. After color developed, absorbance was read on an optical plate reader at 450 nm.
Potency measurements were determined using peak efficacy by scaling test compound dose treatments along a scale of 1-10 between 1 ng/mL and 10 ng/mL HGF doses according to the following formula: […]
where y is the normalized data-point, x is the raw data point, A is the mean HGF at 1 ng/mL, and B is the mean HGF at 10 ng/mL.

[2] = In vitro stability in simulated gastric and intestinal fluids; format: in vitro ADME; settings: 37° C.; for SGF + Enz (compound remaining after 4 hours): SGF with 3.2 mg/ml pepsin; for SGF + Enz (compound remaining after 4 hours) / SIF (compound remaining after 4 hours): 5 μM; for SGF (compound remaining after 4 hours): simulated gastric fluid pH 1.2, 5 μM; for SIF (compound remaining after 4 hours): simulated intestinal fluid pH 6.8 with 10 mg/ml pancreatin
Procedure: Bioavailability can be estimated by compound stability when exposed to conditions in the body. As an initial assessment of stability properties in a variety of conditions present in animals, exemplary compounds were tested for stability in a battery of simulated body compartments. Compounds were tested for stability in the following solutions: simulated gastric fluid (SGF: 34.2 mM NaCl, pH 1.2), simulated gastric fluid with the digestive enzyme pepsin (SGF+Enzyme: SGF with 3.2 mg/ml pepsin), simulated intestinal fluid with the mixture of enzymes in porcine pancreatin (SIF+Enzyme: 28.7 mM NaH2PO4, 105.7 mM NaCl, pH 6.8, 10 mg/ml pancreatin), rat plasma, and human plasma.
Test compounds were incubated at a final concentration of 5 μM in the above solutions at 37° C. with samples removed at the following time points: 0, 1, 2, and 4 hours. Reactions were stopped and prepared for quantification by addition of excess quench solution containing an internal standard (acetonitrile, 200 ng/mL bucetin). Test compound and internal standard in each sample was quantified by LC-MS/MS, and after internal normalization to bucetin, test compound concentration was expressed as a percentage of concentration at the 0-hour time point. Stability in the relevant test solution was then determined by the percent remaining at the 4-hour time point.

[3] = tested on: MDCK cells; experiment: Cell scattering behavior assay; format: cell-based; parameters: key: − indicates that the compound failed to significantly promote cell scattering behavior; + indicates maximum potency at or above 100 nM; ++ indicates maximum potency at or above 10 nM; +++ indicates maximum potency at or above 1 nM; ++++ indicates maximum potency at or above 0.1 nM; settings: 5 ng/mL HGF, 24 hours, normalized particle count vs HGF alone
Procedure: MDCK cells were grown under normal conditions and observed to spontaneously form tight colonies as they proliferate. MDCK cells respond to HGF treatment by moving away from each other (scattering), which is quantified to assess the amount of HGF/MET activation in the cell population. In this experiment, MDCK cells were plated in a 96-well format, treated with HGF and exemplary compounds, fluorescently stained, imaged in large fields, and scattering behavior was quantified. Quantification was determined by analyzing the number of continuous groups of cells compared to the total stained area imaged (normalized particle counts).
MDCK cells were plated at low density in black-walled imaging plates and allowed to attach overnight at 37° C. and 5% CO2 in DMEM+10% FBS. Cells were then starved to 2 hours in DMEM without FBS (“starve media”). Samples containing exemplary compounds were prepared in DMEM without FBS and included 5 ng/mL HGF protein (“treatment media”). A control curve was also prepared for each plate using HGF concentrations of 0, 5, 10, and 20 ng/mL. Starve media was replaced with treatment media and cells were incubated for 24 hours at 37° C. and 5% CO2.
After incubation, cells were fixed by replacing treatment media with cold ethanol and incubating for 20 minutes at 4° C. Cells were then rehydrated by washing with PBS and then with stain solution (fluorescent wheat germ agglutinin; WGA488 at 20 μg/mL in PBS). Cells were incubated with stain solution 30 minutes at room temperature after which stain solution was replaced with fresh PBS.
Fields of cells were imaged using an iCyte high content imager in the green wavelength. Images were converted to binary and analyzed for particle size and particle count. For the purpose of analysis, an individual cell touching no other cells or separated colonies of cells were identified as particles, and particle counts were normalized by the total signal area to account for differences in cell number. […] Compound potency was assessed by statistical increase in normalized particle count compared to HGF treatment alone.

[4] = Oral availability calculation; format: in vivo, Sprague-Dawley rats; settings: both sexes, Sprague-Dawley, plasma; rat, dose corrected AUC PO / dose corrected AUC IV x 100
Source text: Oral bioavailability is critical to developing small molecule therapeutics for oral administration. Calculations of oral bioavailability (% F) are accomplished by comparing in vivo pharmacokinetic data (Example B7) using IV dosing as the maximum possible exposure and determining the exposure rate after PO administration. In these studies, dose corrected AUC from PO administration was divided by dose corrected AUC from IV administration and multiplied by 100 to yield the % F. Results are shown in Table 9.

T1 sequence (P08581 308-1390 limits assumed): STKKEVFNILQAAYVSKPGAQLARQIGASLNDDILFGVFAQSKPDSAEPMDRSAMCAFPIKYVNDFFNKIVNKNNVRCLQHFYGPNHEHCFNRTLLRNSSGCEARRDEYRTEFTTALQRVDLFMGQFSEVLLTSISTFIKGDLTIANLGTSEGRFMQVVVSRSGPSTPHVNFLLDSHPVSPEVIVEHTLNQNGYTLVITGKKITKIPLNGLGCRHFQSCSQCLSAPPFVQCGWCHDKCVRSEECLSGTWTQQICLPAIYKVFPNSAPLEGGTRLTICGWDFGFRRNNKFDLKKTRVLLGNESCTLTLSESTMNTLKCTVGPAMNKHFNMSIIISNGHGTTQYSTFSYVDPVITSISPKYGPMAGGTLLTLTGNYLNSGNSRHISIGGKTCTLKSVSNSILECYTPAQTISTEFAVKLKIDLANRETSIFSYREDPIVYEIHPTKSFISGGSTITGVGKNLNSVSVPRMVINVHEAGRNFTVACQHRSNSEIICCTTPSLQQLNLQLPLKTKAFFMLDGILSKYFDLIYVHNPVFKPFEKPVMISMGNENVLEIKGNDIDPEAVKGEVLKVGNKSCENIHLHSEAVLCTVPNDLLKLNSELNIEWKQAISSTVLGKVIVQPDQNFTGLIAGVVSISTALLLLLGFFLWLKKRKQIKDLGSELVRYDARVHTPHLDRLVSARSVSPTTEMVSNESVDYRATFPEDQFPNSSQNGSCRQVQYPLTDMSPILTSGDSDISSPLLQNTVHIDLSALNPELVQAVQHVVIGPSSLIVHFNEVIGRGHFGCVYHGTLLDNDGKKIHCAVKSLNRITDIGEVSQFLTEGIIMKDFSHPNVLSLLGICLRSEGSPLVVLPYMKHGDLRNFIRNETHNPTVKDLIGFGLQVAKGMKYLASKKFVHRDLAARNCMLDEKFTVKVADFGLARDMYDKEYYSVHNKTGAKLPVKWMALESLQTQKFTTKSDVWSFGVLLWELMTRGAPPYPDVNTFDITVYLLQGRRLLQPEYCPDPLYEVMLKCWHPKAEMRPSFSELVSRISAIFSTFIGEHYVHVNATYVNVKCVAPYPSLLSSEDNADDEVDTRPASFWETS
T1 sequence (P14210 32-494 limits assumed): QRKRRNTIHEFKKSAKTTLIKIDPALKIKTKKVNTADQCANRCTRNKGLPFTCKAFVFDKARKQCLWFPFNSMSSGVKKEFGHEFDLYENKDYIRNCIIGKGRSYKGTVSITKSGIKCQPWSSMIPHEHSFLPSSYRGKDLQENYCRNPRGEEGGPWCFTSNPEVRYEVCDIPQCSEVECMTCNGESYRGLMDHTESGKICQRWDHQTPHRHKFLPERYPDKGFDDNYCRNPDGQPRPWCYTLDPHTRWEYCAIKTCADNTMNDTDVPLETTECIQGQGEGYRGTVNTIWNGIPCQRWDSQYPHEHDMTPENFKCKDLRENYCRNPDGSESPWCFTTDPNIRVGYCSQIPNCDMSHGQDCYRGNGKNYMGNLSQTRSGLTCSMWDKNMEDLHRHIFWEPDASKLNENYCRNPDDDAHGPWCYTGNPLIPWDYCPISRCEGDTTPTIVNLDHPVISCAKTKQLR

Compound | bioavailability [4] | Potency (augmentation of MET phosphorylation) [1] | SGF + Enz (compound remaining after 4 hours) [2] | SGF (compound remaining after 4 hours) [2] | SIF (compound remaining after 4 hours) [2] | Potency (cell scattering) [3]
CCCCN1CC2N(C(=O)c3ccc(OC(F)F)cc3)CCC(=O)N2C(C)C1=O (stereo not shown) [Compound 17] |  | +++ (+++ indicates maximum potency at or above 1 nM) | +++ (+++ indicates 80-99% compound remaining after 4 hours) | +++ (+++ indicates 80-99% compound remaining after 4 hours) | +++ (+++ indicates 80-99% compound remaining after 4 hours) | −
CCC(C)CN1CC2N(C(=O)c3ccc(C(F)(F)F)cc3)CCC(=O)N2[C@@H](C)C1=O (stereo partly shown) [Compound 1a] | 25 to 50% | ++++ (++++ indicates maximum potency at or above 0.1 nM) | ++++ (++++ indicates 100% compound remaining after 4 hours) | ++++ (++++ indicates 100% compound remaining after 4 hours) | ++++ (++++ indicates 100% compound remaining after 4 hours) | ++++ (++++ indicates maximum potency at or above 0.1 nM)
CC1C(=O)N(CCC2CCC2)CC2N(C(=O)c3ccc(C(F)(F)F)cc3)CCC(=O)N12 (stereo not shown) [Compound 20] | > 50% | + (+ indicates maximum potency at or above 100 nM) | +++ (+++ indicates 80-99% compound remaining after 4 hours) | +++ (+++ indicates 80-99% compound remaining after 4 hours) | +++ (+++ indicates 80-99% compound remaining after 4 hours) | +++ (+++ indicates maximum potency at or above 1 nM)
CCC(C)CN1CC2N(C(=O)c3ccc(F)cc3)CCC(=O)N2C(C)C1=O (stereo not shown) [Compound 11, 1-(4-fluorobenzoyl)-6-methyl-8-(2-methylbutyl)hexahydro-4H-pyrazino[1,2-a]pyrimidine-4,7(6H)-dione] | 25 to 50% | +++ (+++ indicates maximum potency at or above 1 nM) | +++ (+++ indicates 80-99% compound remaining after 4 hours) | +++ (+++ indicates 80-99% compound remaining after 4 hours) | ++++ (++++ indicates 100% compound remaining after 4 hours) | ++ (++ indicates maximum potency at or above 10 nM)
CC1C(=O)N(CC2CCC2)CC2N(C(=O)c3ccc(OC(F)F)cc3)CCC(=O)N12 (stereo not shown) [Compound 14] | > 50% |  | ++ (++ indicates 40-79% compound remaining after 4 hours) | ++ (++ indicates 40-79% compound remaining after 4 hours) | +++ (+++ indicates 80-99% compound remaining after 4 hours) | 
CCC(C)CN1CC2N(C(=O)c3ccc(O)cc3)CCC(=O)N2[C@@H](C)C1=O (stereo partly shown) [Compound 8a] |  | + (+ indicates maximum potency at or above 100 nM) | +++ (+++ indicates 80-99% compound remaining after 4 hours) | ++++ (++++ indicates 100% compound remaining after 4 hours) | +++ (+++ indicates 80-99% compound remaining after 4 hours) | +++ (+++ indicates maximum potency at or above 1 nM)
CC1C(=O)N(CCC2CCCC2)CC2N(C(=O)c3ccc(C(F)(F)F)cc3)CCC(=O)N12 (stereo not shown) [Compound 19] |  | +++ (+++ indicates maximum potency at or above 1 nM) | ++ (++ indicates 40-79% compound remaining after 4 hours) | +++ (+++ indicates 80-99% compound remaining after 4 hours) | + (+ indicates 20-39% compound remaining after 4 hours) | +++ (+++ indicates maximum potency at or above 1 nM)

More lines, main results first:

bioavailability [4] | Compound | Potency (augmentation of MET phosphorylation) [1] | SGF + Enz (compound remaining after 4 hours) [2] | SGF (compound remaining after 4 hours) [2] | SIF (compound remaining after 4 hours) [2] | Potency (cell scattering) [3]
< 1% | CCC(C)CN1CC2N(Cc3ccc(O)nc3)CCC(=O)N2[C@@H](C)C1=O (stereo partly shown) [Compound 7a] | ++ (++ indicates maximum potency at or above 10 nM) | +++ (+++ indicates 80-99% compound remaining after 4 hours) | ++++ (++++ indicates 100% compound remaining after 4 hours) | ++ (++ indicates 40-79% compound remaining after 4 hours) | ++ (++ indicates maximum potency at or above 10 nM)
1 to 25% | CCC(C)CN1CC2N(Cc3ccc(OC(F)F)cc3)CCC(=O)N2[C@@H](C)C1=O (stereo partly shown) [Compound 6a] | + (+ indicates maximum potency at or above 100 nM) | + (+ indicates 20-39% compound remaining after 4 hours) | +++ (+++ indicates 80-99% compound remaining after 4 hours) | ++ (++ indicates 40-79% compound remaining after 4 hours) | +++ (+++ indicates maximum potency at or above 1 nM)
1 to 25% | CCC(C)CN1CC2N(Cc3ccc(C(F)(F)F)cc3)CCC(=O)N2[C@@H](C)C1=O (stereo partly shown) [Compound 5a] | + (+ indicates maximum potency at or above 100 nM) | + (+ indicates 20-39% compound remaining after 4 hours) | +++ (+++ indicates 80-99% compound remaining after 4 hours) | +++ (+++ indicates 80-99% compound remaining after 4 hours) | ++++ (++++ indicates maximum potency at or above 0.1 nM)
